Assay results: patent US4260682A, “High sensitivity assays for angiotensin converting enzyme” (priority 1979, dated 1981)
Peptide text beside a SMILES is read from it. * marks the point of attachment. Bz = O=C(c1ccccc1)*

What was measured:
ACE [1] = test: Sulfate and chloride effects on ACE catalysed hydrolysis (general description); type: biochemical; conditions: sulfate present
Description: An assay for ACE, using HipHisLeu as substrate, is herewith described. The assay is more sensitive than any heretofore disclosed using HipHisLeu as substrate. Maximum sensitivity is achieved by the inclusion of sulfate ions, preferably as sodium sulfate, in the reaction mixture. When 0.1 M NaCl is present in the reaction mixture, sulfate ions are stimulatory from 0.1 M to at least 1.1 M. Maximum stimulation occurs in the range from 0.75 M to 1.1 M Na2 SO4.
An even more sensitive assay for ACE activity has been developed using the novel compound ^3 H-benzoylPheAlaPro as substrate. This new substrate can be used to assay ACE in human urine in incubations as short as 15 minutes. The response of this substrate to ions is strikingly different from the response of HipHisLeu. […] This difficulty has been solved by the proper choice of extracting solvent. While a variety of organic solvents may be suitable for the extraction step, it is preferred to employ toluene. Approximately 88% of ^3 H-benzoylPhe enters the toluene phase while only 6% of the unhydrolyzed substrate enters the toluene phase, when toluene and the acidified reaction mixture are in approximately equal volumes at room temperatures.
(§1) The enzyme is active over a broad pH range with a maximum around pH 8.0, but is at least about 50% active in the range pH 7.0-pH 8.8, for both HipHisLeu and benzoylPheAlaPro. Although the enzyme is active in a variety of buffer systems known in the art, it is preferred for convenience, when using benzoylPheAlaPro as substrate, to conduct the assays in 0.05 M Hepes buffer, pH 8.0 containing 0.15 M sodium chloride. Detailed protocols for carrying out the assay are given in the examples. […] The preferred concentration range is 1×10^-9 M to 7×10^- 5 M.

ACE [2] = test: pH dependence of ACE activity; type: biochemical
Description: as §1

ACE from rabbit lung = conditions: sodium chloride removed from reaction medium; cited from earlier work
Guinea pig serum ACE = biological target: T1, Guinea pig serum ACE (Cavia porcellus, UniProt H0UWL7); test: Kinetics of (sulfate-stimulated) HipHisLeu hydrolysis; type: biochemical; conditions: for 1/V / V (reaction velocity): 0.1 M NaCl; for V (reaction velocity): 0.75 M Na2 SO4, pH 8.0, 37° C.
T1 sequence (H0UWL7 33-1234): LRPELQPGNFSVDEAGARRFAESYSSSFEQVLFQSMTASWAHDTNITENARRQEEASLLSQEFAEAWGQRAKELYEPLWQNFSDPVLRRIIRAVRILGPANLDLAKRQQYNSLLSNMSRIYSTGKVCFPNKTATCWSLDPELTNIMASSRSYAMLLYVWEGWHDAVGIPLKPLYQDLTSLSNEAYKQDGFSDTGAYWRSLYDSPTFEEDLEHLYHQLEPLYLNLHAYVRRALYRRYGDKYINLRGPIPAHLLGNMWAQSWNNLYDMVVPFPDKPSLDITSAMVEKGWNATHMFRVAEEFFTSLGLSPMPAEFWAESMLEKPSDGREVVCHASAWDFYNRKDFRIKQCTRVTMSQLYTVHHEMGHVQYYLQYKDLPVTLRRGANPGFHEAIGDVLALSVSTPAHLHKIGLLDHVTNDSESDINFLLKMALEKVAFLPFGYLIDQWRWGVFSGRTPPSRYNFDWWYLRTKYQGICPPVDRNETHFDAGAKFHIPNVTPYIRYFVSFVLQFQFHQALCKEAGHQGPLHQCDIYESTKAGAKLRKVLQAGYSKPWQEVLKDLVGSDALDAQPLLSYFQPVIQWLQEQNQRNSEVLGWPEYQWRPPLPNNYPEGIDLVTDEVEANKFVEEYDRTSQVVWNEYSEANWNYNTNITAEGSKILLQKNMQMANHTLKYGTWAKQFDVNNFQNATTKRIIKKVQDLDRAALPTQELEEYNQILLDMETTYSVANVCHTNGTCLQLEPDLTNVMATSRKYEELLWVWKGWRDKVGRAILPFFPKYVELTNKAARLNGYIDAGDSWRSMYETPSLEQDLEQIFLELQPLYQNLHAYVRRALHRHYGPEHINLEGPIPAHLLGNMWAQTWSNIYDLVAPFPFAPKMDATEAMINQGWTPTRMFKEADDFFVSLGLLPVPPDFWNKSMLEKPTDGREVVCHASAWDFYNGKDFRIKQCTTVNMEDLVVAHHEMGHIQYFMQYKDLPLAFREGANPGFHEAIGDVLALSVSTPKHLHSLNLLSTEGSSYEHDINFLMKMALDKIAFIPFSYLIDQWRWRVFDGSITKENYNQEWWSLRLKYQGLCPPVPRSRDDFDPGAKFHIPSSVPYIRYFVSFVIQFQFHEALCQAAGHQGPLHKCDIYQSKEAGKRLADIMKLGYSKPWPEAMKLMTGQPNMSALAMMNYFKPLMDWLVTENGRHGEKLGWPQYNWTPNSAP
Experimental: Kinetics of Sulfate-Stimulated HipHisLeu Hydrolysis
In each assay, 50 μl of Guinea pig serum diluted 1-20 (v/v) in the reaction buffer was mixed with 50 μl of buffer containing sufficient ^3 H-HipHisLeu to provide approximately 100,000 cpm total, together with sufficient unlabeled HipHisLeu to produce the desired substrate concentrations, as indicated in Table 2. […] The reaction mixture was then extracted with 1 ml ethyl acetate. 500 μl of the ethyl acetate fraction was sampled and counted in a scintillation counter.

## CC(C)C[C@H](NC(=O)[C@H](Cc1c[nH]cn1)NC(=O)CNC(=O)c1ccccc1)C(=O)O [HipHisLeu] (Bz-Gly-His-Leu-OH)
ACE [1]
  dependence of hydrolysis on added chloride: can be carried out in the absence of added chloride, if sulfate is present
ACE [2]
  pH of maximum activity: ~8.0 pH
ACE [2]; range pH 7.0-pH 8.8
  activity of enzyme (relative to maximum): at least 50%
ACE from rabbit lung
  inhibition on removal of sodium chloride: 92%
Guinea pig serum ACE; 0.05 M Hepes, pH 8.0, 0.1 M NaCl, 0.75 M Na2 SO4, serum diluted 1-20
  Vmax: 5.59 nmol/min/mL
Guinea pig serum ACE; 0.75 M Na2 SO4 in reaction mixture containing 0.1 M NaCl
  reduction of Km: about 15 fold
Guinea pig serum ACE; HipHisLeu 0.01 mM, 0.75 M Na2 SO4
  1/V: 3.33 nmole^-1 · min .multi
Guinea pig serum ACE; HipHisLeu 0.01 mM
  V (reaction velocity): 0.30 nmol/min/mL
Guinea pig serum ACE; HipHisLeu 0.02 mM, 0.75 M Na2 SO4
  1/V: 1.92 nmole^-1 · min .multi
Guinea pig serum ACE; HipHisLeu 0.02 mM
  V (reaction velocity): 0.52 nmol/min/mL
Guinea pig serum ACE; HipHisLeu 0.03 mM, 0.75 M Na2 SO4
  1/V: 1.35 nmole^-1 · min .multi
Guinea pig serum ACE; HipHisLeu 0.03 mM
  V (reaction velocity): 0.74 nmol/min/mL
Guinea pig serum ACE; HipHisLeu 0.04 mM, 0.75 M Na2 SO4
  1/V: 0.78 nmole^-1 · min .multi
Guinea pig serum ACE; HipHisLeu 0.04 mM
  V (reaction velocity): 1.28 nmol/min/mL
Guinea pig serum ACE; HipHisLeu 0.05 mM, 0.75 M Na2 SO4
  1/V: 0.88 nmole^-1 · min .multi
Guinea pig serum ACE; HipHisLeu 0.05 mM
  V (reaction velocity): 1.14 nmol/min/mL
Guinea pig serum ACE; HipHisLeu 0.06 mM, 0.75 M Na2 SO4
  1/V: 0.78 nmole^-1 · min .multi
Guinea pig serum ACE; HipHisLeu 0.06 mM
  V (reaction velocity): 1.28 nmol/min/mL
Guinea pig serum ACE; HipHisLeu 0.07 mM, 0.75 M Na2 SO4
  1/V: 0.47 nmole^-1 · min .multi
Guinea pig serum ACE; HipHisLeu 0.07 mM
  V (reaction velocity): 2.14 nmol/min/mL
Guinea pig serum ACE; HipHisLeu 0.08 mM, 0.75 M Na2 SO4
  1/V: 0.57 nmole^-1 · min .multi
Guinea pig serum ACE; HipHisLeu 0.08 mM
  V (reaction velocity): 1.76 nmol/min/mL
Guinea pig serum ACE; sulfate ion 0.75-1.1 M vs. without
  decrease in Km: 14 fold
